In patent publication US5494895A, “Scorpion peptide margatoxin with immunosuppressant activity” (Merck & Co., Inc., priority 1993, dated 1996):
Peptide text beside a SMILES is read from it.

Tests used:
Kv 1.3 = target: T1, Kv 1.3 (Rattus norvegicus, UniProt P15384); assay: [125I]ChTX binding to rat brain synaptic plasma membrane vesicles; conditions: low ionic strength (50 mM NaCl, 20 mM Tris-HCl, pH 7.4)
T1 construct: from tissue; host or cells: rat brain synaptic plasma membrane vesicles
Procedure: The potency of MgTX as an inhibitor of [^125 I]ChTX binding to Kv 1.3 was evaluated. The binding of [^125 I]ChTX to either rat brain synaptic plasma membrane vesicles (Kv 1.3 channel; Vazquez et al., J. Biol. Chem. 265, 15564, 1990) or bovine aortic smooth muscle sarcolemmal membranes (Maxi-K channel; Vazquez et al., J. Biol. Chem. 264, 20402, 1989) was determined as described. Briefly, membrane vesicles were incubated with [^125 I]ChTX in the presence or absence of other added agents, until equilibrium was achieved. Separation of bound from free ligand was accomplished by filtration through GF/C glass fiber filters (WHATMAN) that had been presoaked in 0.5% polyethyleneimine. Nonspecific binding was determined in the presence of 10 nM unlabeled ChTX. Data from saturation experiments were analyzed in a Scatchard representation to determine Kd and Bmax values. Triplicate samples were obtained for each experimental point and the data were averaged. The standard deviation of the mean was typically less than 2%. […] As an indication of selectivity, MgTX had no effect on [^125 I]ChTX binding to the Maxi-K channel in smooth muscle membranes at concentrations up to 10 nM.

Kv 3.1 = target: T2, Kv 3.1 (Rattus norvegicus, UniProt P25122); assay: Two-electrode voltage clamp of Xenopus oocytes expressing Kv 4 (Kv 3.1); assay type: cell-based; conditions: 200 nM MgTX
T2 construct: expressed in transfected cells; host or cells: Xenopus oocytes injected with RNA transcribed in vitro from the cDNA clone
T2 sequence (P25122 1-585): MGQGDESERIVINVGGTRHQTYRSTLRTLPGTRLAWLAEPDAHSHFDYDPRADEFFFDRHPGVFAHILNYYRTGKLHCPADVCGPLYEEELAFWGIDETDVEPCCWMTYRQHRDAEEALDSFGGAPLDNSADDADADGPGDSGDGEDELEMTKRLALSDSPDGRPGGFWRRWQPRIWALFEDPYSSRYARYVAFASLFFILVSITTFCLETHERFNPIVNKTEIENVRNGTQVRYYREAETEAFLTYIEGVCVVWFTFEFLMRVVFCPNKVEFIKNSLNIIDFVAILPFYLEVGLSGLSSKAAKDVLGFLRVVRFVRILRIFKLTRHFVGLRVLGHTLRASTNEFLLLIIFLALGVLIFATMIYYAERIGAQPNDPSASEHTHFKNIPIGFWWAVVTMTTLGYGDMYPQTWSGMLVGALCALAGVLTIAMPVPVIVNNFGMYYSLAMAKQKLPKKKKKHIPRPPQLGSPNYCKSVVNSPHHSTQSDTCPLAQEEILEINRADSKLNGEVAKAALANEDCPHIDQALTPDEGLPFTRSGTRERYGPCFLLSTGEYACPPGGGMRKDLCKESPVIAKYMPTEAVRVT
Procedure: Ionic currents were also recorded from Xenopus oocytes that had been injected with RNA transcribed in vitro from one or another of the following K^+ channel cDNA clones. Kv 1 (rat Kv 1.5), rat or human Kv 3 (rat Kv 1.3; human Kv 1.3), Kv 4 (rat Kv 3.1 ), rat ISK, Kv 2 (rat Kv 1.6) or Drosophila Shaker-H4. The names of the clones are listed as originally published, with the appropriate parenthetical designation according to the unified gene nomenclature proposed by Chandy. Shaker-H4 is a splice variant from the original Drosophila Shaker K^+ channel gene. Kv 1.3 is the ChTX-sensitive delayed rectifier current found in rat and human T lymphocytes (data from rat and human clones were indistinguishable and were combined) and it is a member of the Shaker family. Kv 1.5 is a channel cloned from rat (Swanson et al., Neuron, 4, 929, 1990) and is another member of the Shaker family. The Kv 1.5 transcript has been detected in pancreatic β cells as described in Philipson, et al., Proc. Natl. Acad. Sci. U.S.A. 88, 53, 1991. […] The ISK transcript has been detected in lymphocytes (Attali et al., J. Biol. Chem,. 267, 8650, 1992), but no evidence of the IKs current has been found in those cells.
Methods for oocyte isolation and micro-injection were previously described in Goldin, Meth. […] Currents expressed in oocytes were measured using a DAGAN model CA-1 two-electrode voltage clamp. […]

T1 sequence (P15384 whole entry): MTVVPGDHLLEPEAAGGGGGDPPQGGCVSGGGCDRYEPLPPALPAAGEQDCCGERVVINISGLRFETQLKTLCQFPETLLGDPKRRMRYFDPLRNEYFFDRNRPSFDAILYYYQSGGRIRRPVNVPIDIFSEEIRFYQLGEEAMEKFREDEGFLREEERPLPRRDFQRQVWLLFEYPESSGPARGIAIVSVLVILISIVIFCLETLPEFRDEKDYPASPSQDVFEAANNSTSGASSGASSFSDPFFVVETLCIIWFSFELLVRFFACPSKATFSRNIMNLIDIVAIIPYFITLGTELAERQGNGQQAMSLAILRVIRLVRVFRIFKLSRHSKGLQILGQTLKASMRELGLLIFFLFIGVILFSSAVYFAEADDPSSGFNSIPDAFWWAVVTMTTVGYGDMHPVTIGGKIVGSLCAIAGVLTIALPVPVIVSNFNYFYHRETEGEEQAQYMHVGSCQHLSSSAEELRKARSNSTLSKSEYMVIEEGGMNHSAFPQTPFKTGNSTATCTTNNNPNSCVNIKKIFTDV

## CC[C@H](C)[C@H](NC(=O)[C@@H](N)[C@@H](C)O)C(=O)N[C@H](C(=O)N[C@@H](CC(N)=O)C(=O)N[C@H](C(=O)N[C@@H](CCCCN)C(=O)N[C@H]1CSSC[C@@H]2NC(=O)[C@H](CCCCN)NC(=O)[C@H](C)NC(=O)CNC(=O)[C@H](C)NC(=O)[C@H](CO)NC(=O)[C@H](CCC(N)=O)NC(=O)CNC(=O)[C@H](Cc3ccccc3)NC(=O)[C@H](CCC(N)=O)NC(=O)[C@H](C)NC(=O)[C@H](CCCCN)NC(=O)[C@@H]3CSSC[C@@H](C(=O)N[C@@H](Cc4ccc(O)cc4)C(=O)N4CCC[C@H]4C(=O)N[C@@H](Cc4c[nH]cn4)C(=O)O)NC(=O)[C@H](CCCCN)NC(=O)[C@H](CSSC[C@H](NC(=O)[C@H](CCC(N)=O)NC(=O)[C@H](CCCCN)NC(=O)[C@@H]4CCCN4C(=O)[C@H](CO)NC(=O)[C@H]([C@@H](C)O)NC1=O)C(=O)N[C@@H](CC(C)C)C(=O)N1CCC[C@H]1C(=O)N1CCC[C@H]1C(=O)N3)NC(=O)[C@H](CCCCN)NC(=O)CNC(=O)[C@H](CC(N)=O)NC(=O)[C@H](CCSC)NC2=O)C(C)C)[C@@H](C)CC [MgTX, Margatoxin] (HELM PEPTIDE1{T.I.I.N.V.K.C.T.S.P.K.Q.C.L.P.P.C.K.A.Q.F.G.Q.S.A.G.A.K.C.M.N.G.K.C.K.C.Y.P.H}$PEPTIDE1,PEPTIDE1,7:R3-29:R3|PEPTIDE1,PEPTIDE1,13:R3-34:R3|PEPTIDE1,PEPTIDE1,17:R3-36:R3$$$V2.0; N-terminus and C-terminus assumed; bridges inferred)
Kv 1.3
  Hill coefficient of inhibition of [125I]ChTX binding to brain membranes: 1.7
Kv 1.3; read-out: IC50 for inhibition of [125I]ChTX binding to brain membranes
  IC50: 36 pM
Kv 3.1
  sensitivity of cloned channel Kv 3.1 to block: completely insensitive
